Measured values as given in patent publication EP4653437A2 (Innovo Therapeutics Inc., priority 2023, dated 2024).

What was measured:
human 15-PGDH = target: T1, human 15-PGDH (Homo sapiens, UniProt P15428); assay: Evaluation of 15-PGDH inhibitory activity (fluorescence enzyme assay, NAD+/PGE2); format: biochemical; details: human 15-PGDH enzyme, fluorescence Vmax
T1 construct: purchased R&D System 5660-DH
T1 sequence (P15428 1-266): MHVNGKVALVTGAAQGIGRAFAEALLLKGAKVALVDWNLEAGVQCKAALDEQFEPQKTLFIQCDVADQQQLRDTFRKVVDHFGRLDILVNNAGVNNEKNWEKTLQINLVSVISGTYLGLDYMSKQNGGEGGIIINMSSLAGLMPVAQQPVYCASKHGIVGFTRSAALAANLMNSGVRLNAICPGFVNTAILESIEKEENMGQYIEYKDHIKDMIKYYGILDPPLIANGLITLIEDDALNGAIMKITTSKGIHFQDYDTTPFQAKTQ
Method: 15-PGDH inhibition activity of Example compounds was measured as follows. 6.7 ng of human 15-PGDH (R&D System# 5660-DH) enzyme (10 µL) was added to a black 96 well plate, 60 µL of buffer (50 mM Tris-HCl, pH 7.5, 0.01% Tween 20) was added, and 10 µL of 200 µM β-Nicotinamide adenine dinucleotide sodium salt (Sigma, Cat# N0632-5G) was added. 10 µL of (10x) compound solution in DMSO was added and reacted for 10 minutes at room temperature.

A549 cells = assay: Measurement of PGE2-increasing activity in A549 cells (IL-1β stimulated, PGE2 quantified in supernatant); format: cell-based; details: for fold induction at 1 µM: Homo sapiens, 24 h, concentration of 1 µM of each compound, IL-1β treated A549 cells, read-out: Increased PGE2 production in A549 cells
Method in brief: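 A549 cells grown 24 h in F12K with 10% FBS, then switched to serum-free medium with or without IL-1β and compound (0.1% DMSO final). After 24 h at 37 °C, 5% CO2, supernatant PGE2 quantified by immunoassay.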

IC50 (human 15-PGDH) [nM]	SMILES	fold induction at 1 µM (A549 cells)	Increased PGE2 production in A549 cells (A549 cells)
≤ 100	O=C(c1cnn2c(-c3ccc(F)nc3)cccc12)N1CCCC(C(F)(F)F)C1 (centres unmarked) [Example 338, (7-(6-fluoropyridin-3-yl)pyrazolo[1,5-a]pyridin-3-yl)(3-(trifluoromethyl)piperidin-1-yl)methanone]	> 1.5	
≤ 100	O=C(c1ccc(-c2cccc3c(C(=O)N4CCCCC4)cnn23)cn1)N1CCOCC1 [Example 74, (7-(6-(morpholine-4-carbonyl)pyridin-3-yl)pyrazolo[1,5-a]pyridin-3-yl)(piperidin-1-yl)methanone]	> 1.5	
≤ 100	CN1CCc2ncc(-c3cccc4c(C(=O)N5CCCCC5)cnn34)cc2C1=O [Example 199, 6-methyl-3-(3-(piperidine-1-carbonyl)pyrazolo[1,5-a]pyridin-7-yl)-7,8-dihydro-1,6-naphthyridin-5(6H)-one]	> 1.5	
≤ 100	O=C1NC(=O)/C(=C/c2cccc(-c3cccc4c(C(=O)N5CCCCC5)cnn34)c2)S1 [Example 119, (Z)-5-(3-(3-(piperidine-1-carbonyl)pyrazolo[1,5-a]pyridin-7-yl)benzylidene)thiazolidine-2,4-dione]	> 1.5	
≤ 100	O=C(c1cnn2c(-c3ccc(O)c(Cl)c3)cccc12)N1CCCCC1 [Example 21]	> 1.5	
≤ 100	Cc1nnc(-c2ncc(-c3cccc4c(C(=O)N5CCCCC5)cnn34)cc2F)o1 [Example 379, [7-[5-fluoro-6-(5-methyl-1,3,4-oxadiazol-2-yl)-3-pyridyl]pyrazolo[1,5-a]pyridin-3-yl]-(1-piperidyl)methanone]	> 1.5	
≤ 100	O=C(c1cnn2c(-c3ccc(N4CCOC4=O)nc3)cccc12)N1CCCC(F)(F)C1 [Example 384, 3-(5-(3-(3,3-difluoropiperidine-1-carbonyl)pyrazolo[1,5-a]pyridin-7-yl)pyridin-2-yl)oxazolidin-2-one]	> 1.5	
≤ 100	O=C(c1ccc(-c2cccc3c(C(=O)N4CCCCC4)cnn23)cn1)N1CCC1 [Example 77, azetidin-1-yl(5-(3-(piperidine-1-carbonyl)pyrazolo[1,5-a]pyridin-7-yl)pyridin-2-yl)methanone]	> 1.5	
≤ 100	N#CCCNC(=O)c1ccc(-c2cccc3c(C(=O)N4CCCCC4)cnn23)o1 [Example 90, N-(2-cyanoethyl)-5-(3-(piperidine-1-carbonyl)pyrazolo[1,5-a]pyridin-7-yl)furan-2-carboxamide]	> 1.5	
≤ 100	O=C(c1cnn2c(-c3cc(F)cc(-c4ncon4)c3)cccc12)N1CCCCC1 [Example 341, (7-(3-fluoro-5-(1,2,4-oxadiazol-3-yl)phenyl)pyrazolo[1,5-a]pyridin-3-yl)(piperidin-1-yl)methanone]	> 1.5	
≤ 100	Nc1cnn(-c2ccc(-c3cccc4c(C(=O)N5CCCCC5)cnn34)cn2)c1 [Example 344, (7-(6-(4-amino-1H-pyrazol-1-yl)pyridin-3-yl)pyrazolo[1,5-a]pyridin-3-yl)(piperidin-1-yl)methanone]	> 1.5	
≤ 100	O=C1NCc2ccc(-c3cccc4c(C(=O)N5CCC(F)(F)CC5)cnn34)cc21 [Example 234, 6-(3-(4,4-difluoropiperidine-1-carbonyl)pyrazolo[1,5-a]pyridin-7-yl)isoindolin-1-one]	> 1.5	
≤ 100	CC(C)N1CCc2ccc(-c3cccc4c(C(=O)N5CCCCC5)cnn34)cc2C1=O [Example 133, 2-isopropyl-7-(3-(piperidine-1-carbonyl)pyrazolo[1,5-a]pyridin-7-yl)-3,4-dihydroisoquinolin-1(2H)-one]	> 1.5	
≤ 100	O=C(c1cnn2c(-c3ccc(-c4noc(=O)[nH]4)c(F)c3)cccc12)N1CCCCC1 [Example 304, 3-[2-fluoro-4-[3-(piperidine-1-carbonyl)pyrazolo[1,5-a]pyridin-7-yl]phenyl]-4H-1,2,4-oxadiazol-5-one]	> 1.5	
≤ 100	O=C(NCc1ccon1)c1ccc(-c2cccc3c(C(=O)N4CCCCC4)cnn23)cc1 [Example 73, N-(isoxazol-3-ylmethyl)-4-(3-(piperidine-1-carbonyl)pyrazolo[1,5-a]pyridin-7-yl)benzamide]	> 1.5	
≤ 100	O=C(c1cnn2c(Nc3ccc[nH]c3=O)cccc12)N1CCCCC1 [Example 147, 3-((3-(piperidine-1-carbonyl)pyrazolo[1,5-a]pyridin-7-yl)amino)pyridin-2(1H)-one]	> 1.5	

IC50 (human 15-PGDH) [nM]	SMILES	fold induction at 1 µM (A549 cells)	Increased PGE2 production in A549 cells (A549 cells)
≤ 100	CN(C)C(=O)c1ccc(-c2cccc3c(C(=O)N4CCCCC4)cnn23)cc1 [Example 59, N,N-dimethyl-4-(3-(piperidine-1-carbonyl)pyrazolo[1,5-a]pyridin-7-yl)benzamide]	> 1.5	
≤ 100	O=C(c1cnn2c(-c3ccc(-c4n[nH]c(=O)o4)nc3)cccc12)N1CCCCC1 [Example 360, 5-[5-[3-(piperidine-1-carbonyl)pyrazolo[1,5-a]pyridin-7-yl]-2-pyridyl]-3H-1,3,4-oxadiazol-2-one]	> 1.5	
≤ 100	O=C(c1cncc(-c2cccc3c(C(=O)N4CCCCC4)cnn23)c1)N1CCC1 [Example 41, azetidin-1-yl(5-(3-(piperidine-1-carbonyl)pyrazolo[1,5-a]pyridin-7-yl)pyridin-3-yl)methanone]	> 1.5	
≤ 100	O=C(c1cncc(-c2cccc3c(C(=O)N4CCCCC4)cnn23)c1)N1CC(=NO)C1 [Example 230, (3-hydroxyiminoazetidin-1-yl)-[5-[3-(piperidine-1-carbonyl)pyrazolo[1,5-a]pyridin-7-yl]-3-pyridyl]methanone]	> 1.5	
≤ 100	O=C1CC(C(=O)Nc2ccc(-c3cccc4c(C(=O)N5CCCCC5)cnn34)cn2)CCN1 (centres unmarked) [Example 105, 2-oxo-N-(5-(3-(piperidine-1-carbonyl)pyrazolo[1,5-a]pyridin-7-yl)pyridin-2-yl)piperidine-4-carboxamide]		++ (key: +: 0 < PGE2 increasing ability < 1.5; ++: PGE2 increasing ability ≥ 1.5)
≤ 100	O=C(Nc1cccc2c(C(=O)N3CCCCC3)cnn12)c1ccc(Cl)cc1 [Example 239, 4-chloro-N-[3-(piperidine-1-carbonyl)pyrazolo[1,5-a]pyridin-7-yl]benzamide]	> 1.5	
≤ 100	C[C@H]1CCCN(C(=O)c2cnn3c(-c4ccc5c(c4)C(=O)NC5)cccc23)C1 [Example 386, (S)-6-(3-(3-methylpiperidine-1-carbonyl)pyrazolo[1,5-a]pyridin-7-yl)isoindolin-1-one]	> 1.5	
≤ 100	COCCNC(=O)c1cncc(-c2cccc3c(C(=O)N4CCCCC4)cnn23)c1 [Example 45, N-(2-methoxyethyl)-5-(3-(piperidine-1-carbonyl)pyrazolo[1,5-a]pyridin-7-yl)nicotinamide]	> 1.5	
≤ 100	O=C(O)c1ccc(-c2cccc3c(C(=O)N4CCCCC4)cnn23)cc1 [Example 10, 4-(3-(piperidine-1-carbonyl)pyrazolo[1,5-a]pyridin-7-yl)benzoic acid]	< 1.5	
≤ 100	O=C(Nc1cncc(-c2cccc3c(C(=O)N4CCCCC4)cnn23)c1)c1cncc(F)c1 [Example 335, 5-fluoro-N-(5-(3-(piperidine-1-carbonyl)pyrazolo[1,5-a]pyridin-7-yl)pyridin-3-yl)nicotinamide]	> 1.5	
≤ 100	O=C(c1cnn2c(-c3ccc(Cl)nc3F)cccc12)N1CCCCC1 [Example 315, (7-(6-chloro-2-fluoropyridin-3-yl)pyrazolo[1,5-a]pyridin-3-yl)(piperidin-1-yl)methanone]	> 1.5	
≤ 100	O=C(c1cnn2c(-c3ccc(-c4n[nH]c(=O)o4)cc3)cccc12)N1CCCCC1 [Example 349, 5-[4-[3-(piperidine-1-carbonyl)pyrazolo[1,5-a]pyridin-7-yl]phenyl]-3H-1,3,4-oxadiazol-2-one]	> 1.5	
≤ 100	O=C(c1ncc(-c2cccc3c(C(=O)N4CCCCC4)cnn23)cc1F)N1CCOCC1 [Example 249, [7-[5-fluoro-6-(morpholine-4-carbonyl)-3-pyridyl]pyrazolo[1,5-a]pyridin-3-yl]-(1-piperidyl)methanone]	< 1.5	
≤ 100	N#Cc1ccc(Nc2cccc3c(C(=O)N4CCCCC4)cnn23)cc1 [Example 146, 4-((3-(piperidine-1-carbonyl)pyrazolo[1,5-a]pyridin-7-yl)amino)benzonitrile]	> 1.5	
≤ 100	O=C(c1cnn2c(-c3ccc(N4CCOC4=O)nc3)cccc12)N1CCCC(C(F)(F)F)C1 (centres unmarked) [Example 339, 3-(5-(3-(3-(trifluoromethyl)piperidine-1-carbonyl)pyrazolo[1,5-a]pyridin-7-yl)pyridin-2-yl)oxazolidin-2-one]	> 1.5	
